Experimental data: patent US4599331A, “Etianic acids as antiangiogenics” (Syntex (U.S.A.) Inc., priority 1984, dated 1986)

How the values were obtained:
glucocorticoid receptor [1] = biological target: T1, glucocorticoid receptor (Mus musculus, UniProt P06537); assay: competition for 3H-dexamethasone binding sites in LE II cytosol (glucocorticoid receptor affinity); conditions: Table 1; displacement of 25 nM 3H-DEX, LE II (mouse lung capillary endothelial) cytosol, 3 hours on ice; read-out: IC50 Binding LEII
T1 construct: endogenous in cells; host or cells: LE II (mouse lung capillary endothelial) cells, 100,000 x g cytosol
T1 sequence (P06537 1-792): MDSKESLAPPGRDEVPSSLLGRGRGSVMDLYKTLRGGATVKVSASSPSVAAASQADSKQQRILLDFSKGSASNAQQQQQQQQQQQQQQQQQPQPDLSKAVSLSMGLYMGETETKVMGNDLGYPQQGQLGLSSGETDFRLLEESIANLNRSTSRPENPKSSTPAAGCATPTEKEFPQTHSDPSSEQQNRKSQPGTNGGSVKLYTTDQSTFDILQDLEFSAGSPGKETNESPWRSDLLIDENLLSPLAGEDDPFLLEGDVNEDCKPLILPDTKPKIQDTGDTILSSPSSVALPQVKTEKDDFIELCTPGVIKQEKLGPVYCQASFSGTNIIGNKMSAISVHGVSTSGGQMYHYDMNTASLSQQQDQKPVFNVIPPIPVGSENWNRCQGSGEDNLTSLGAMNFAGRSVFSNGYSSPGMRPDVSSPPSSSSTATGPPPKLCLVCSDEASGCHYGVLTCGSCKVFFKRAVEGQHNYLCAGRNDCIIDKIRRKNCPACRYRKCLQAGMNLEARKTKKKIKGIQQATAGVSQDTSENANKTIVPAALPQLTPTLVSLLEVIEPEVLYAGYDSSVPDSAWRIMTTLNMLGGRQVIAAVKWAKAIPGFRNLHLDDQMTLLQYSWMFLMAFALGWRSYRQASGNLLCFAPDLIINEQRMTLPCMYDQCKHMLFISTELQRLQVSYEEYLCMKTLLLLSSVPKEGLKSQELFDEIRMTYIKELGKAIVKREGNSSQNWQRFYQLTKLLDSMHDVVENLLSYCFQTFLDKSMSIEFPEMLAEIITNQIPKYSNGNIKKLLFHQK
Method: (§1) LE II (mouse lung capillary endothelial) or HTC (rat hepatoma) cells were grown in Dulbecco's modified Eagle's (DMEM) medium plus 10% fetal calf serum (FCS), in 150 cm^2 T-flasks. Approximately 20 flasks of LE II cells or 10 flasks of HTC cells were needed for a 60-80 sample assay.
(§2) Cell monolayers were washed 3 times with Phosphate Buffered Saline (PBS) and harvested by scraping with a rubber policeman into an ice-cold sonication buffer of 0.25M sucrose; 10 mM Tris-HCl, pH 7.4; 5 mM ethylenediaminetetraacetic acid (EDTA); 5 mM dithiothereitol; and 10 mM sodium molybdate. All subsequent steps were performed at 4° C. The cells were pooled into a final volume of 8-12 mls, broken by sonication for 45 seconds with the microtip of a Branson sonifier at setting #3 and the residue was then centrifuged at 100,000 X g for 30 minutes with a Beckman L8-50, Ti50 rotor, at 40,000 rpm. […] Incubations were peformed in a final volume of 1 ml in 1.5 ml Eppendorf centrifuge tubes for 3 hours on ice.
(§3) Fine Sephadex G-50 gel was swollen and equilibrated against column buffer of 100 mM Tris-HCl, pH 7.8; and 3 mM CaCl2. Columns were poured to a final packed volume of 4.5 ml in 5 ml plastic disposable pipets.
(§4) The packed columns were then drained of buffer and the 1 ml incubated samples were applied to each. The samples were washed into the columns with 0.5 ml of column buffer, and the exclusion volumes containing the protein peaks were eluted with another 1 ml of column buffer and collected. Aliquots of 750 μl of Biorad protein reagent were diluted 1:5 in H2 O. OD630 nm reading were compared with those obtained for a bovine serum albumin standard curve.

glucocorticoid receptor [2] = biological target: T2, glucocorticoid receptor (Rattus norvegicus, UniProt P06536); assay: competition for 3H-dexamethasone binding sites in HTC cytosol (glucocorticoid receptor affinity); conditions: Table 1; displacement of 25 nM 3H-DEX, HTC (rat hepatoma) cytosol, 3 hours on ice
T2 construct: endogenous in cells; host or cells: HTC (rat hepatoma) cells, 100,000 x g cytosol
T2 sequence (P06536 1-795): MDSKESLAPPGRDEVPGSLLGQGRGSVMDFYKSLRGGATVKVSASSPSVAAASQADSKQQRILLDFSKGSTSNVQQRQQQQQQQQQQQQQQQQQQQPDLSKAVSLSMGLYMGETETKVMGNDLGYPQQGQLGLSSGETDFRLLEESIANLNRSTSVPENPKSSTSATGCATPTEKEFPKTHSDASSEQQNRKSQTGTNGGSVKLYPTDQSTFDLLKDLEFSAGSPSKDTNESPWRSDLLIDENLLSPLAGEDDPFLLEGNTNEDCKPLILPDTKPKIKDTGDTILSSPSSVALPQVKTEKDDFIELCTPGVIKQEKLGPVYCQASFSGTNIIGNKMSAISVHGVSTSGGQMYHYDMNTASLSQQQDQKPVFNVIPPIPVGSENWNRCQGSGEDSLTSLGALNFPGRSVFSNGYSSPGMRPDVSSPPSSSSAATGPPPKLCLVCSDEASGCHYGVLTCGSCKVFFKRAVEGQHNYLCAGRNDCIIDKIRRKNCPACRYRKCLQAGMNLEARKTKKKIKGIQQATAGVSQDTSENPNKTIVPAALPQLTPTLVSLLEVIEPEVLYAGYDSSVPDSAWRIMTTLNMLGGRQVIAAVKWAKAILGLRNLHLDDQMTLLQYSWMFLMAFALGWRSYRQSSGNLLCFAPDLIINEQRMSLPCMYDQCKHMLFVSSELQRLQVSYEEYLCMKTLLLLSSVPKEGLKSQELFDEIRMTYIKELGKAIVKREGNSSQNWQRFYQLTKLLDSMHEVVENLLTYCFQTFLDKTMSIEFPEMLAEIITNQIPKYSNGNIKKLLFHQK
Method: as §1, §2, §3, §4

Structure (SMILES): CCC(=O)O[C@]1(C(=O)OC)[C@H](C)C[C@H]2[C@@H]3CC(F)C4=C(F)C(=O)C=C[C@]4(C)[C@@]3(F)[C@@H](O)C[C@@]21C (stereo partly drawn) [compound 8]
- IC50 (glucocorticoid receptor [1]): 0.25 nM
- IC50 (glucocorticoid receptor [2]): 0.25 nM

Structure (SMILES): CCC(=O)O[C@]1(C(=O)OC)[C@H](C)C[C@H]2[C@@H]3CC(F)C4=CC(=O)C=C[C@]4(C)[C@@]3(F)[C@@H](O)C[C@@]21C (stereo partly drawn) [compound 7]
- IC50 (glucocorticoid receptor [1]): 0.25 nM
- IC50 (glucocorticoid receptor [2]): 4 nM

Structure (SMILES): CCC(=O)O[C@]1(C(=O)OC)[C@@H](C)C[C@H]2[C@@H]3CCC4=CC(=O)C=C[C@]4(C)[C@@]3(F)[C@@H](O)C[C@@]21C [compound 1]
- IC50 (glucocorticoid receptor [1]): 2 nM
- IC50 (glucocorticoid receptor [2]): 5 nM

Structure (SMILES): CCC(=O)O[C@]1(C(=O)OC)[C@@H](C)C[C@H]2[C@@H]3CC(F)C4=C(F)C(=O)C=C[C@]4(C)[C@@]3(F)[C@@H](O)C[C@@]21C (stereo partly drawn) [compound 3]
- IC50 (glucocorticoid receptor [1]): 15 nM
- IC50 (glucocorticoid receptor [2]): 15 nM

Structure (SMILES): CCCC(=O)O[C@]1(C(=O)OC)[C@H](C)C[C@H]2[C@@H]3CC(F)C4=CC(=O)C=C[C@]4(C)[C@@]3(F)[C@@H](O)C[C@@]21C (stereo partly drawn) [compound 9]
- IC50 (glucocorticoid receptor [1]): 0.025 nM
- IC50 (glucocorticoid receptor [2]): 0.025 nM

Structure (SMILES): CCCC(=O)O[C@]1(C(=O)OC)[C@@H](C)C[C@H]2[C@@H]3CC(F)C4=CC(=O)C=C[C@]4(C)[C@@]3(F)[C@@H](O)C[C@@]21C (stereo partly drawn) [compound 4]
- IC50 (glucocorticoid receptor [1]): 0.25 nM
- IC50 (glucocorticoid receptor [2]): 0.25 nM
